≈ marks a conversion by molar mass, not a printed value. Where two headings read alike, the source gives them in different places.
What was measured:
[1] = Aqueous solubility determination (shake flask, UV); assay type: physicochemical; details: for solubility at 48 h: thermodynamic from solid
Procedure: One of the expected effects of introducing nitrogen substitutions on combretastatin and isocombretastatin analogues, is an increase in aqueous solubility. Solubility was spectrophotometrically determined in phosphate buffer at pH 7. UV absorbance of soluble compounds was measured after shaking and microfiltration. […] In addition, aqueous solubilities of the corresponding ammonium salts are over 1 mg/mL.
This great improvement is probably due to the symmetry reduction, combined with an increased polarity for 2g.
Compounds were stirred in a solution of phosphate buffer at pH 7.0 (1–2 mg of compound in 300 µL of buffer) during 48 h. After that, the samples were filtered over a […] filter to discard the insoluble residues. In order to determine the maximum wavelength of absorbance for each compound, a scan between 270 and 400 nm was performed. Once the wavelength was selected, a calibration line was performed and the concentration of the stirred and filtered samples was measured.

[2] = tested on: HeLa cervix epithelioid carcinoma; assay: MTT cell antiproliferative assay, HeLa; assay type: cell-based; details: Homo sapiens, 72 h
Procedure: (§1) The in vitro antiproliferative activity of the synthesized compounds was evaluated by a colorimetric reaction, using the MTT reagent. They were tested against three different human tumor cell lines: HeLa cervix epithelioid carcinoma, HT-29 colon adenocarcinoma, and MCF-7 breast adenocarcinoma. […] Moving the alkylamino substituent from a para to a meta position with respect to the bridge results in potency reduction, except for the phenstatin analogue 1f. However, the introduction of a nitrogen atom to form 2-dimethylaminopyridine derivatives entails a loss of activity, both for phenstatin analogues (1b, 2b), while for isocombretastatins, it only involves a 2–3 times potency decrease (3b). For combretastatins, it implies an improvement in the cytotoxicity values down to tenths of nanomolar (8b). […] On the other hand, the best 2-dimethylaminopyridine was combretastatin 8b. All ammonium salts derivatives were not cytotoxic at micromolar concentrations.
(§2) HeLa (human cervical carcinoma) and MCF-7 (human breast carcinoma) cell lines were cultured in Dulbecco’s Modified Eagles Medium (DMEM) supplemented with 2 mM L-glutamine (Lonza-Cambrex, Karlskoga, Sweden), 10% (v/v) heat inactivated fetal bovine serum (HIFBS) (Lonza-Cambrex) and 100 μg/mL streptomycin-100 IU/mL penicillin (Lonza-Cambrex) at 37 °C in humidified 95% air and 5% CO2. HT-29 (human colon carcinoma) cells were cultured at 37 °C in complete RPMI 1640 medium containing 2 mM L-glutamine, 10% (v/v) HIFBS and 100 μg/mL streptomycin-100 IU/mL penicillin in humidified 95% air and 5% CO2 atmosphere.
(§3) The effect of the different compounds on the proliferation of human cell lines was determined by using the MTT (3-[4,5-dimethylthiazol-2-yl]-2,5-diphenyltetrazolium bromide) reagent (MTT Thiazolyl Blue Tetrazolium Bromide, Sigma-Aldrich, St. Louis, MO, USA) dissolved in PBS 5 mg/mL. Cell viability was evaluated seeding 100 µL of cells in exponential growth phase with appropriate cell line concentration (1.5 × 10^4 HeLa and MCF-7 cells/mL and 3 × 10^4 HT-29 cells/mL) in complete medium in 96-well plates at 37 °C and 5% CO2. After 24 h incubation to allow cells to attach to the plates the ligands were added at different concentrations from 10^−5 to 10^−9 M. The effect on the proliferation was evaluated 72 h post-treatment by adding the MTT reagent (10 µL/well) to a final concentration of 0.5 mg/mL and the plate was further incubated for another 3 h. After this period, the supernatant was removed, the MTT violet crystals formed on the bottom of each well were dissolved in DMSO (100 µL/well) and subsequently, the absorbance of the color complex was read at 570 nm using a multi-well plate reader. Compounds were dissolved in dimethyl sulfoxide (DMSO) and the final solvent concentrations never exceeded 0.5% (v/v). The control wells included treated cells with 0.5% (v/v) DMSO and the positive control. Measurements were performed in triplicate, and each experiment was repeated three times. […] Nonlinear curves fitting the experimental data were carried out for each compound.

[3] = tested on: HT-29 colon adenocarcinoma; assay: MTT cell antiproliferative assay, HT-29 (without or with verapamil); assay type: cell-based, human; details: for IC50: Homo sapiens, HT-29, MTT, 72 h
Procedure: as §1
As observed in Table 1, there are no significant changes in the IC50 values for most compounds, except for combretastatins 8a and 8i.
Acquired resistance to antitumor drugs is one of the more important problems of chemotherapy, also affecting tubulin-targeting drugs. In order to ascertain the impact of multidrug resistance phenotypes on the action of the compounds, we have measured the cell proliferation inhibitory activity of HT-29 cells in the presence of verapamil, a known P-glycoprotein 1/multidrug resistance protein 1 (MDR1) inhibitor at a concentration of 10 µM, not affecting cell proliferation. […] Except for the combretastatin analogues 8a and 8i, the affected drugs are all pyridine drugs.
as §2, §3

[4] = tested on: MCF-7 breast adenocarcinoma; assay: MTT cell antiproliferative assay, MCF-7; assay type: cell-based; details: Homo sapiens, MCF7, 72 h
Procedure: as §1, §2, §3

[5] = tested on: Bovine brain microtubule protein (MTP); assay: Tubulin polymerization inhibition assay (turbidimetry); assay type: biochemical; details: 1.5 mg/mL MTP; IC50 calculated only if more than 50% inhibition at 20 µM; read-out: TPI IC50
Procedure: Bovine brain microtubule protein (MTP) was isolated as previously described. Briefly, it was purified according to the modified Shelanski method by two cycles of temperature-dependent assembly/disassembly.
Tubulin polymerization was monitored using a Helios α spectrophotometer by measuring the increase in turbidity at 450 nm, caused by a shift from 4 °C to 37 °C, which allows the in vitro MTP self-disassembly and assembly respectively. […] Firstly, ligands at 20 µM concentration, were incubated with 1.5 mg/mL MTP at 20 °C for 30 min and subsequently cooled on ice for 10 min. Then, the experiment starts at 4 °C to establish the initial baseline. The assembly process was initiated by shifting of the temperature to 37 °C and the turbidity produced can be measured by an absorbance increase. After reaching a stable plateau, the temperature was switched back to 4 °C to return to the initial absorption values. The difference in amplitude between the stable plateau and the initial baseline of the curves was taken as the degree of tubulin polymerization for each experiment. […] All the measurements were carried out in at least two independent experiments using MTP from different isolation.

[6] = tested on: HeLa, HT-29 and MCF-7 human tumor cell lines; assay: Antiproliferative activity over the three human tumor cell lines (MTT); assay type: cell-based; details: Homo sapiens, range over the cell lines, Table S1; read-out: Cytotoxicity range (range of antiproliferative IC50 values)
Procedure: as §1
The antiproliferative activity of the compounds against three human tumor cell lines of different origins (i.e., HeLa cervix epithelioid carcinoma, HT-29 colon adenocarcinoma and MCF-7 breast adenocarcinoma) was evaluated by the MTT method. […] This high success rate is the result of a combination of favorable scaffolds and substituents, and it is similar to those of previous reports on related series. […] We have previously observed the same trend for related compounds acting at the colchicine site of tubulin [10, 23]. For this pyridine series, we observed a different potency trend when we compare the 4-amino-3-pyridine and the 3-amino-4-pyridine derivatives. […] This different behavior is probably a reflection of their different shape, combined with the different geometries imposed by different bridges. We have previously shown that the potency ordering isocombretastatins similar to oximes higher than benzophenones could be explained by the higher conjugation of the ketones with the aromatic rings, which imposes a more planar disposition than those required for high affinity colchicine site binding. For the 3-amino-4-pyridine series, more planar structures are required in order to avoid the bumping of the amino substituents with tubulin out the plane of the aromatic ring, an effect which we have previously shown to impact the potency of 3-substituted indolecombretastatins and dimethylaminophenyl phenstatins. This different geometrical disposition of the amino substituents, and the different adaptability of their corresponding pockets in the two series, can also account for the preference of bulkier substituents at position 3, such as the pyrrolidine rather than the smaller dimethylamino. […] The opposite is observed for the 4-dimethylaminophenyl phenstatins 1a and 1b. […] The remarkable levels of solubility achieved for the quaternary ammonium salts came unfortunately at the expenses of biological activity.
The effect of the different compounds on the proliferation of human cell lines was determined by using the MTT (3-[4,5-dimethylthiazol-2-yl]-2,5-diphenyltetrazolium bromide) reagent (MTT Thiazolyl Blue Tetrazolium Bromide, Sigma-Aldrich, St. Louis, MO, USA) dissolved in PBS 5 mg/mL. Cell viability was evaluated seeding 100 µL of cells in exponential growth phase with appropriate cell line concentration (1.5 × 10^4 HeLa and MCF-7 cells/mL and 3 × 10^4 HT-29 cells/mL) in complete medium in 96-well plates at 37 °C and 5% CO2. After 24 h incubation to allow cells to attach to the plates the ligands were added at different concentrations from 10^−5 to 10^−9 M. The effect on the proliferation was evaluated 72 h post-treatment by adding the MTT reagent (10 µL/well) to a final concentration of 0.5 mg/mL and the plate was further incubated for another 3 h. […]

[7] = tested on: rat primary pancreatic cells; assay: Toxicity against rat primary pancreatic cells (MTT); details: rat, 7 h, 0.05 µM, pH 7.4
Procedure: The toxicity of the compounds against rat primary pancreatic cells was evaluated by the MTT protocol (Table 2). […] Sodium taurocholate (NaTc) was also used at high concentrations as a model of acute pancreatitis in vitro.
Rat primary pancreatic cells were isolated as previously described. Afterwards, pancreatic cells were resuspended in Na-HEPES solution (pH 7.4) containing 14 mM glucose, 1% essential amino acid mixture, 1% (w/v) BSA, 0.01% (w/v) STI, 0.5 mM CaCl2 and incubated (5% CO2, at 37 °C) for 7 h in the absence (non-treated control) or the presence of compounds at different concentrations. After the treatment, cells were incubated (5% CO2, at 37 °C) with 0.5 mg/mL MTT for 2 h and the formazan crystals were solubilized with DMSO (v/v). The optical density was read at 570 nm with a reference wavelength of 630 nm. Non-treated cell viability was set as 100%.

[8] = phosphate buffer, pH 7, aqueous buffer, phosphate buffer pH 7.0, 48 h stirring, filtered, UV, read-out: Solub.
[9] = aqueous buffer, phosphate buffer pH 7.0, 48 h stirring, filtered, UV, read-out: Solub.

| SMILES | solubility at 48 h [1, 8] [µg/mL] | solubility at 48 h ([1]; phosphate buffer, pH 7, aqueous buffer, phosphate buffer pH 7, stated in text, read-out: aqueous solubility) [µg/mL] | IC50 [2] [µM] | IC50 [3] [µM] | IC50 [4] [µM] | IC50 [5] [µM] | improvement of HT-29 IC50 after verapamil treatment ([3]; 10 µM verapamil) [fold] | IC50 [6] [µM] | live cells with respect to the non-treated control (means ± S.E.M.) [7] [%] | solubility at 48 h [1, 9] [µg/mL] | Solub. ([1]; phosphate buffer pH 7.0, 48 h stirring, filtered, UV) [µg/mL] |
| --- | --- | --- | --- | --- | --- | --- | --- | --- | --- | --- | --- |
| COc1cc(C(=NO)c2ccnc(N(C)C)c2)cc(OC)c1OC [Compound 2g, (2-(Dimethylamino)pyridin-4-yl)(3,4,5-trimethoxyphenyl)methanone oxime] | 583 (≈ 1760 µM) | ~600 (≈ 1810 µM) | 0.533 | 3.37 | 0.407 | > 20 |  |  |  |  |  |
| COc1cc([C@@H]2c3cc4c(cc3[C@@H](O[C@@H]3O[C@@H]5CO[C@@H](C)O[C@H]5[C@H](O)[C@H]3O)[C@H]3COC(=O)[C@H]23)OCO4)cc(OC)c1O [Etoposide, etoposide, reference compound] |  |  |  |  |  |  |  |  | 89.87 ± 11.80 |  |  |
| C=C(c1ccc(N(C)C)cc1)c1cc(OC)c(OC)c(OC)c1 [Compound 3a, N,N-Dimethyl-4-(1-(3,4,5-trimethoxyphenyl)vinyl)aniline] |  |  | 0.04 | 0.07 |  | 1.9 |  |  |  | 30 (≈ 95.7 µM) |  |
| COc1cc(C(=O)c2ccc(N(C)C)cc2)cc(OC)c1OC [Compound 1a, (4-(Dimethylamino)phenyl)(3,4,5-trimethoxyphenyl)methanone] |  |  | 0.09 | 0.4 |  | > 20 |  |  |  |  | 48 |
| COc1cc(C(=O)c2ccc(N3CCCC3)nc2)cc(OC)c1OC [Compound 1c, (6-(Pyrrolidin-1-yl)pyridin-3-yl)(3,4,5-trimethoxyphenyl)methanone] |  |  | 1.6 | 5.17 | 2.33 | > 20 |  | > 1 |  |  |  |
| COc1cc(C(=NO)c2ccc(N(C)C)cc2)cc(OC)c1OC [Compound 2a, (4-(Dimethylamino)phenyl)(3,4,5-trimethoxyphenyl)methanone oxime] |  |  | 0.8 | 1 |  | > 20 |  |  |  | 74 (≈ 224 µM) |  |
| COc1ccc(C(=O)c2ccc(N(C)C)cc2)c(OC)c1OC [Compound 1d, (4-(Dimethylamino)phenyl)(2,3,4-trimethoxyphenyl)methanone] |  |  | 0.413 | 0.5 | 0.407 | > 20 |  | 0.407 to 0.65 |  |  |  |
| COc1cc(C(=O)c2ccnc(N(C)C)c2)cc(OC)c1OC [Compound 1g, (2-(Dimethylamino)pyridin-4-yl)(3,4,5-trimethoxyphenyl)methanone] | 33.8 (≈ 107 µM) |  | 0.387 | 0.313 | 0.223 | > 20 |  | 0.223 to 0.387 |  |  |  |

Further lines, with some results ahead:

| solubility at 48 h [1, 8] [µg/mL] | solubility at 48 h ([1]; phosphate buffer, pH 7, aqueous buffer, phosphate buffer pH 7, stated in text, read-out: aqueous solubility) [µg/mL] | IC50 [2] [µM] | IC50 [3] [µM] | IC50 [4] [µM] | IC50 [5] [µM] | improvement of HT-29 IC50 after verapamil treatment ([3]; 10 µM verapamil) [fold] | SMILES | IC50 [6] [µM] | live cells with respect to the non-treated control (means ± S.E.M.) [7] [%] | solubility at 48 h [1, 9] [µg/mL] | Solub. ([1]; phosphate buffer pH 7.0, 48 h stirring, filtered, UV) [µg/mL] |
| --- | --- | --- | --- | --- | --- | --- | --- | --- | --- | --- | --- |
| 136 (≈ 433 µM) |  | 0.403 | 0.397 | 0.367 | > 20 |  | C=C(c1ccnc(N(C)C)c1)c1cc(OC)c(OC)c(OC)c1 [Compound 3g, N,N-Dimethyl-4-(1-(3,4,5-trimethoxyphenyl)vinyl)pyridin-2-amine] |  |  |  |  |
| 62 (≈ 182 µM) |  | 0.257 | 0.477 | 0.317 | > 20 | > 2 | C=C(c1ccnc(N2CCCC2)c1)c1cc(OC)c(OC)c(OC)c1 [Compound 3h, 2-(Pyrrolidin-1-yl)-4-(1-(3,4,5-trimethoxyphenyl)vinyl)pyridine] | 0.23 to 0.477 |  |  |  |
|  |  | 1 | 4 | 2 | > 20 |  | C=C(c1ccc(N(C)C)cc1)c1ccc(OC)c(OC)c1OC [Compound 3d, N,N-dimethyl-4-(1-(2,3,4-trimethoxyphenyl)vinyl)aniline] | > 1 |  |  |  |

— article PMC6930638, “The Masked Polar Group Incorporation (MPGI) Strategy in Drug Design: Effects of Nitrogen Substitutions on Combretastatin and Isocombretastatin Tubulin Inhibitors” (Molecules, 2019)
